Results taken from PubChem BioAssay AID1963969 (Molecular Pharmacology Branch, DTP, NCI, 2024).
Where “and” joins values, the source holds several entries; their conditions need not be identical. Identical values can stand only once.

Tested on: 817829-284-R-J1-PDC multi-cell spheroid viability
Experiment: Anticancer human tumor 817829-284-R-J1-PDC patient-derived colon adenocarcinoma cell line growth inhibition [PI3K]
Details: for viability, T/C: stronger effect = lower value; active = viability on the fitted dose curve at most 10% of control; inactive = the rest
Outline: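 Tumor cells were combined with HUVEC and MSCs into spheroids, then dosed with PI3K-inhibitor combinations over half-log ranges capped near clinical Cmax or 10 microM.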

[1] = curve of first compound, second compound 0.00316 µM
[2] = curve of first compound, second compound 0.01 µM
[3] = curve of first compound, second compound 0.0316 µM
[4] = curve of first compound, second compound 0.1 µM
[5] = curve of first compound, second compound 0.316 µM
[6] = curve of first compound, second compound 1 µM
[7] = second compound 0.00316 µM, first compound 0.000316 µM
[8] = second compound 0.00316 µM, first compound 0.001 µM
[9] = second compound 0.00316 µM, first compound 0.00316 µM
[10] = second compound 0.00316 µM, first compound 0.01 µM
[11] = second compound 0.00316 µM, first compound 0.0316 µM
[12] = second compound 0.00316 µM, first compound 0.1 µM
[13] = second compound 0.01 µM, first compound 0.000316 µM
[14] = second compound 0.01 µM, first compound 0.001 µM
[15] = second compound 0.01 µM, first compound 0.00316 µM
[16] = second compound 0.01 µM, first compound 0.01 µM
[17] = second compound 0.01 µM, first compound 0.0316 µM
[18] = second compound 0.01 µM, first compound 0.1 µM
[19] = second compound 0.0316 µM, first compound 0.000316 µM
[20] = second compound 0.0316 µM, first compound 0.001 µM
[21] = second compound 0.0316 µM, first compound 0.00316 µM
[22] = second compound 0.0316 µM, first compound 0.01 µM
[23] = second compound 0.0316 µM, first compound 0.0316 µM
[24] = second compound 0.0316 µM, first compound 0.1 µM
[25] = second compound 0.1 µM, first compound 0.000316 µM
[26] = second compound 0.1 µM, first compound 0.001 µM
[27] = second compound 0.1 µM, first compound 0.00316 µM
[28] = second compound 0.1 µM, first compound 0.01 µM
[29] = second compound 0.1 µM, first compound 0.0316 µM
[30] = second compound 0.1 µM, first compound 0.1 µM
[31] = second compound 0.316 µM, first compound 0.000316 µM
[32] = second compound 0.316 µM, first compound 0.001 µM
[33] = second compound 0.316 µM, first compound 0.00316 µM
[34] = second compound 0.316 µM, first compound 0.01 µM
[35] = second compound 0.316 µM, first compound 0.0316 µM
[36] = second compound 0.316 µM, first compound 0.1 µM
[37] = second compound 1 µM, first compound 0.000316 µM
[38] = second compound 1 µM, first compound 0.001 µM
[39] = second compound 1 µM, first compound 0.00316 µM
[40] = second compound 1 µM, first compound 0.01 µM
[41] = second compound 1 µM, first compound 0.0316 µM
[42] = second compound 1 µM, first compound 0.1 µM
[43] = second compound 0.0316 µM, first compound 0.316 µM
[44] = second compound 0.0316 µM, first compound 1 µM
[45] = second compound 0.0316 µM, first compound 3.16 µM
[46] = second compound 0.0316 µM, first compound 10 µM
[47] = second compound 0.1 µM, first compound 0.316 µM
[48] = second compound 0.1 µM, first compound 1 µM
[49] = second compound 0.1 µM, first compound 3.16 µM
[50] = second compound 0.1 µM, first compound 10 µM
[51] = second compound 0.316 µM, first compound 0.316 µM
[52] = second compound 0.316 µM, first compound 1 µM
[53] = second compound 0.316 µM, first compound 3.16 µM
[54] = second compound 0.316 µM, first compound 10 µM
[55] = second compound 1 µM, first compound 0.316 µM
[56] = second compound 1 µM, first compound 1 µM
[57] = second compound 1 µM, first compound 3.16 µM
[58] = second compound 1 µM, first compound 10 µM
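Also: spheroids exposed to agents for seven days before readout.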
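For viability, T/C in this document: percent of vehicle DMSO control viability which is 100%.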

CC(=O)c1c(C)c2cnc(Nc3ccc(N4CCNCC4)cn3)nc2n(C2CCCC2)c1=O + COc1c(OCCCN2CCOCC2)ccc2c3n(c(=NC(=O)c4cnc(N)nc4)nc12)CCN3
inactive: viability, T/C [7] 79.1% | viability, T/C [8] 85.2% | viability, T/C [9] 66.7% | viability, T/C [10] 74.5% | viability, T/C [11] 66.6% | viability, T/C [12] 30.2% | viability, T/C [13] 91.1% | viability, T/C [14] 60% | viability, T/C [15] 56% | viability, T/C [16] 55.7% | viability, T/C [17] 75.7% | viability, T/C [18] 34% | viability, T/C [19] 65.2% | viability, T/C [20] 40.6% | viability, T/C [21] 48.3% | viability, T/C [22] 60.6% | viability, T/C [23] 33.5% | viability, T/C [24] 24.3% | viability, T/C [25] 29.2% | viability, T/C [26] 30.3% | viability, T/C [27] 34.6% | viability, T/C [28] 21.1% | viability, T/C [29] 22.7% | viability, T/C [30] 25.3% | viability, T/C [31] 16.9% | viability, T/C [32] 22.2% | viability, T/C [33] 20.8% | viability, T/C [34] 17.9% | viability, T/C [35] 18.2% | viability, T/C [36] 16.2% | viability, T/C [37] 11.2% | viability, T/C [38] 10.2% | viability, T/C [39] 8.91% | viability, T/C [40] 12.2% | viability, T/C [41] 11.6% | viability, T/C [42] 7.24%
52.3 nM: IC50 [1]
< 0.316 nM: IC50 [4] | IC50 [5] | IC50 [6]
> 100 nM: IC50 [2]
12.3 nM: IC50 [3]

C#Cc1c(F)ccc2cc(O)cc(-c3ncc4c(N5CC6CCC(C5)N6)nc(OCC56CCCN5CC(F)C6)nc4c3F)c12 (configuration not stated) + CC(Nc1ccc2c(c1)OCCn1cc(N3C(=O)OCC3C(F)F)nc1-2)C(N)=O
5160 nM: IC50 [2]
< 31.6 nM: IC50 [6]
inactive: viability, T/C [11] 83.7% | viability, T/C [12] 75.3% | viability, T/C (second compound 0.00316 µM, first compound 0.316 µM) 87.4% | viability, T/C (second compound 0.00316 µM, first compound 1 µM) 77.4% | viability, T/C (second compound 0.00316 µM, first compound 3.16 µM) 69.9% | viability, T/C (second compound 0.00316 µM, first compound 10 µM) 47.2% | viability, T/C [17] 90% | viability, T/C [18] 84.8% | viability, T/C (second compound 0.01 µM, first compound 0.316 µM) 72.7% | viability, T/C (second compound 0.01 µM, first compound 1 µM) 79.9% | viability, T/C (second compound 0.01 µM, first compound 3.16 µM) 56.1% | viability, T/C (second compound 0.01 µM, first compound 10 µM) 38.3% | viability, T/C [23] 74.9% | viability, T/C [24] 69.8% | viability, T/C [43] 58.5% | viability, T/C [44] 65.9% | viability, T/C [45] 63.5% | viability, T/C [46] 47.8% | viability, T/C [29] 64.9% | viability, T/C [30] 79.8% | viability, T/C [47] 56.1% | viability, T/C [48] 80.5% | viability, T/C [49] 77.8% | viability, T/C [50] 39% | viability, T/C [35] 53.5% | viability, T/C [36] 83.5% | viability, T/C [51] 48.6% | viability, T/C [52] 71.2% | viability, T/C [53] 54.7% | viability, T/C [54] 32.2% | viability, T/C [41] 45.1% | viability, T/C [42] 45.3% | viability, T/C [55] 47.8% | viability, T/C [56] 60.3% | viability, T/C [57] 59.9% | viability, T/C [58] 30.2%
4350 nM: IC50 [5]
> 10000 nM: IC50 [3] | IC50 [4]
8670 nM: IC50 [1]

Cn1ncc(Cl)c1-c1cc(C(=O)NC(CN)Cc2cccc(F)c2)sc1Cl (configuration not stated)
< 31.6 nM and 118 nM: IC50 (curve of compound)
inactive: viability, T/C (compound 0.0316 µM) 52.7% and 85.2% | viability, T/C (compound 0.1 µM) 47.4% and 54.1% | viability, T/C (compound 0.316 µM) 31.6% and 27.1% | viability, T/C (compound 1 µM) 18.3% and 22.5% | viability, T/C (compound 3.16 µM) 16.1% and 20.2% | viability, T/C (compound 10 µM) 76.6% and 13.4%

CC(Nc1ncnc2nc[nH]c12)c1cc2cccc(Cl)c2c(=O)n1-c1ccccc1 (configuration not stated)
inactive: viability, T/C (compound 0.0316 µM) 98.7% and 80.4% | viability, T/C (compound 0.1 µM) 78.1% and 107% | viability, T/C (compound 0.316 µM) 98.9% and 104% | viability, T/C (compound 1 µM) 89% and 74.1% | viability, T/C (compound 3.16 µM) 82.9% and 94.8% | viability, T/C (compound 10 µM) 66% and 70.4%
> 10000 nM: IC50 (compound alone, run of 04/25/2023)

CC(C)n1nc(-c2ccc3oc(N)nc3c2)c2c(N)ncnc21 + COc1c(OCCCN2CCOCC2)ccc2c3n(c(=NC(=O)c4cnc(N)nc4)nc12)CCN3
5.26 nM: IC50 [3]
active: viability, T/C [37] 9.62% | viability, T/C [38] 14% | viability, T/C [39] 9.7% | viability, T/C [40] 10.8% | viability, T/C [41] 8.57% | viability, T/C [42] 6.68%
< 0.316 nM: IC50 [4] | IC50 [5] | IC50 [6]
inactive: viability, T/C [7] 66.8% | viability, T/C [8] 83.7% | viability, T/C [9] 72.2% | viability, T/C [10] 45.5% | viability, T/C [11] 42.6% | viability, T/C [12] 17.8% | viability, T/C [13] 44% | viability, T/C [14] 83.3% | viability, T/C [15] 67.6% | viability, T/C [16] 70.9% | viability, T/C [17] 26.6% | viability, T/C [18] 14.4% | viability, T/C [19] 78.5% | viability, T/C [20] 72.7% | viability, T/C [21] 45.5% | viability, T/C [22] 46.5% | viability, T/C [23] 37.7% | viability, T/C [24] 19.6% | viability, T/C [25] 31.9% | viability, T/C [26] 31.8% | viability, T/C [27] 38% | viability, T/C [28] 31.1% | viability, T/C [29] 26.9% | viability, T/C [30] 17% | viability, T/C [31] 21.1% | viability, T/C [32] 22.8% | viability, T/C [33] 23.6% | viability, T/C [34] 17.7% | viability, T/C [35] 21.8% | viability, T/C [36] 18.7%
16.1 nM: IC50 [2]
13.6 nM: IC50 [1]

CNC(=O)c1ccc(N2C(=S)N(c3ccc(C#N)c(C(F)(F)F)c3)C(=O)C2(C)C)cc1F + Cc1nc(NC(=O)N2CCCC2C(N)=O)sc1-c1ccnc(C(C)(C)C(F)(F)F)c1
2350 nM: IC50 (curve of first compound, second compound 3.16 µM)
> 10000 nM: IC50 [3] | IC50 [4] | IC50 [5]
6960 nM: IC50 [6]
inactive: viability, T/C [23] 95.7% | viability, T/C [24] 102% | viability, T/C [43] 96.2% | viability, T/C [44] 90.2% | viability, T/C [45] 67.6% | viability, T/C [46] 84.6% | viability, T/C [29] 69% | viability, T/C [30] 77.8% | viability, T/C [47] 87.4% | viability, T/C [48] 69.3% | viability, T/C [49] 56.4% | viability, T/C [50] 68.2% | viability, T/C [35] 106% | viability, T/C [36] 85.5% | viability, T/C [51] 68.8% | viability, T/C [52] 70.6% | viability, T/C [53] 77.2% | viability, T/C [54] 63.3% | viability, T/C [41] 60% | viability, T/C [42] 73.6% | viability, T/C [55] 68.7% | viability, T/C [56] 107% | viability, T/C [57] 63.3% | viability, T/C [58] 43.8% | viability, T/C (second compound 3.16 µM, first compound 0.0316 µM) 67.3% | viability, T/C (second compound 3.16 µM, first compound 0.1 µM) 77.8% | viability, T/C (second compound 3.16 µM, first compound 0.316 µM) 81.8% | viability, T/C (second compound 3.16 µM, first compound 1 µM) 58.3% | viability, T/C (second compound 3.16 µM, first compound 3.16 µM) 48.5% | viability, T/C (second compound 3.16 µM, first compound 10 µM) 34.5% | viability, T/C (second compound 10 µM, first compound 0.0316 µM) 60% | viability, T/C (second compound 10 µM, first compound 0.1 µM) 70% | viability, T/C (second compound 10 µM, first compound 0.316 µM) 54.8% | viability, T/C (second compound 10 µM, first compound 1 µM) 52.6% | viability, T/C (second compound 10 µM, first compound 3.16 µM) 38.3% | viability, T/C (second compound 10 µM, first compound 10 µM) 22.9%
1150 nM: IC50 (curve of first compound, second compound 10 µM)
